The record followed here is US7462600B2, “Macrolides” (Pfizer Inc, priority 2004, dated 2008).

Format in all cases: cell-based
The subject of assay [1] is Streptococcus pyogenes 1079. As to the kind of experiment: MIC, microtiter broth dilution (NCCLS M100-S14), S. pyogenes 1079 (ermB). Summed up: (§1)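 Stock solutions of 40 mg/ml in DMSO were used. MIC values came from microtiter-tray broth dilution following NCCLS M100-S14 guidelines.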
The subject of assay [2] is Streptococcus pneumoniae 1016. In words: MIC, microtiter broth dilution (NCCLS M100-S14), S. pneumoniae 1016 (susceptible). Summed up:
as §1
(In broth dilution the organism is exposed to a series of concentrations in liquid medium.)

Assay [3] has as its system Streptococcus pneumoniae 1095. To be noted: microtiter broth dilution. In a few lines: as §1
Assay [4] deals with Streptococcus pneumoniae 1175. Particulars: microtiter broth dilution. Summed up:
as §1

The subject of assay [5] is Haemophilus influenzae 1218. As to the kind of experiment: MIC, microtiter broth dilution (NCCLS M100-S14), H. influenzae 1218 (susceptible). In a few lines: as §1
The mark [6] stands for this setting: S. pneumoniae 1016 (susceptible).
Setting [7] is: H. influenzae 1218 (susceptible).

Values after ≈ are worked out from the molar mass of the structure shown. Where two headings read alike, the source gives them in different places.

With `CCC1OC(=O)C(C)C(=O)C(C)C(OC2OC(C)CC(N(C)C)C2O)C(C)(OC)CC(C)C(=O)C(C)C2N(C3CN(Cc4c(Cl)cnc5[nH]cnc45)C3)C(=O)OC12C` (stereo not drawn) [Example 1.100, 3-descladinosyl-11,12-dideoxy-6-O-methyl-3-oxo-12,11-(oxycarbonyl-(1-(6-chloro-3H-imidazo[4,5-b]pyridine-7-methyl)-azetidin-3-yl)-imino)-erythromycin A], in assay [1] (Streptococcus pyogenes 1079), the “MIC S. pyogenes 1079” value came out at 0.125 µg/mL (≈ 0.15 µM). Besides, the “MIC S. pneumo. 1016” value in assay [2] (Streptococcus pneumoniae 1016) is under 0.063 µg/mL. In addition, the “MIC S. pneumo. 1095” value in assay [3] (Streptococcus pneumoniae 1095) was under 0.063 µg/mL. Besides, in assay [4] (Streptococcus pneumoniae 1175), the “MIC S. pneumo. 1175” value was under 0.063 µg/mL. In addition, the “MIC H. influenzae 1218” value in assay [5] (Haemophilus influenzae 1218) worked out at 0.5 µg/mL (≈ 0.6 µM).
For `CCC1OC(=O)C(C)C(=O)C(C)C(OC2OC(C)CC(N(C)C)C2O)C(C)(OC)CC(C)C(=O)C(C)C2N(C3CN(Cc4c(Br)cnc5cccnc45)C3)C(=O)OC12C` (stereo not drawn) [Example 1.106, 3-descladinosyl-11,12-dideoxy-6-O-methyl-3-oxo-12,11-(oxycarbonyl-(1-(3-bromo-1,5-naphthyridine-4-methyl)-azetidin-3-yl)-imino)-erythromycin A], in assay [1] (Streptococcus pyogenes 1079), the “MIC S. pyogenes 1079” value was 0.25 µg/mL (≈ 0.281 µM). In assay [2] (Streptococcus pneumoniae 1016), the “MIC S. pneumo. 1016” value was under 0.063 µg/mL. The “MIC S. pneumo. 1095” value in assay [3] (Streptococcus pneumoniae 1095) is under 0.063 µg/mL. Moreover, the “MIC S. pneumo. 1175” value in assay [4] (Streptococcus pneumoniae 1175) is under 0.063 µg/mL. For the same molecule, the “MIC H. influenzae 1218” value in assay [5] (Haemophilus influenzae 1218) is 1 µg/mL (≈ 1.12 µM).
As for `CC[C@H]1OC(=O)[C@H](C)C(=O)[C@H](C)[C@@H](O[C@@H]2O[C@H](C)C[C@H](N(C)C)[C@H]2O)[C@](C)(OC)C[C@@H](C)C(=O)[C@H](C)[C@H]2N(CC3(O)CN(Cc4c[nH]c(=O)[nH]c4=O)C3)C(=O)O[C@]12C` [7.09], in assay [1] (S. pyogenes 1079 (ermB)), the “MIC S. pyogenes 1079” value is over 64.00 µg/mL. Further, the “MIC S. pneumo. 1016” value in assay [2] (setting [6]) was determined as 0.5 µg/mL (≈ 0.608 µM). Also, the “MIC S. pneumo. 1095” value in assay [3] (S. pneumoniae 1095 (ermB)) was determined as 64 µg/mL (≈ 77.9 µM). In addition, in assay [4] (S. pneumoniae 1175 (mefA)), the “MIC S. pneumo. 1175” value came out at 16 µg/mL (≈ 19.5 µM). Also, the “MIC H. influenzae 1218” value in assay [5] (setting [7]) was 16 µg/mL (≈ 19.5 µM).
Consider `CCC1OC(=O)C(C)C(=O)C(C)C(OC2OC(C)CC(N(C)C)C2O)C(C)(OC)CC(C)C(=O)C(C)C2N(C3CN(S(=O)(=O)c4ccc(Oc5cccnc5)cc4)C3)C(=O)OC12C` (stereo not drawn) [Example 3.27, 4-(pyridin-3-yloxy) benzenesulfonyl], for which the “MIC S. pyogenes 1079” value in assay [1] (Streptococcus pyogenes 1079) is 32 µg/mL (≈ 35.5 µM). In addition, the “MIC S. pneumo. 1016” value in assay [2] (Streptococcus pneumoniae 1016) was under 0.06 µg/mL. Besides, in assay [3] (Streptococcus pneumoniae 1095), the “MIC S. pneumo. 1095” value is under 0.06 µg/mL. Further, in assay [4] (Streptococcus pneumoniae 1175), the “MIC S. pneumo. 1175” value is under 0.06 µg/mL. For the same molecule, the “MIC H. influenzae 1218” value in assay [5] (Haemophilus influenzae 1218) was found to be 1 µg/mL (≈ 1.11 µM).
With `CC[C@H]1OC(=O)[C@H](C)C(=O)[C@H](C)[C@@H](O[C@@H]2O[C@H](C)C[C@H](N(C)C)[C@H]2O)[C@](C)(OC)C[C@@H](C)C(=O)[C@H](C)[C@H]2N(CC3(O)CN(C(=O)c4ccc5nccnc5c4)C3)C(=O)O[C@]12C` [7.18], in assay [1] (S. pyogenes 1079 (ermB)), the “MIC S. pyogenes 1079” value is over 64.00 µg/mL. The “MIC S. pneumo. 1016” value in assay [2] (setting [6]) is under 0.06 µg/mL. The “MIC S. pneumo. 1095” value in assay [3] (S. pneumoniae 1095 (ermB)) turned out to be 0.25 µg/mL (≈ 0.293 µM). The “MIC S. pneumo. 1175” value in assay [4] (S. pneumoniae 1175 (mefA)) amounted to 0.25 µg/mL (≈ 0.293 µM). Besides, the “MIC H. influenzae 1218” value in assay [5] (setting [7]) is 2 µg/mL (≈ 2.34 µM).
Consider `CCC1OC(=O)C(C)C(=O)C(C)C(OC2OC(C)CC(N(C)C)C2O)C(C)(OC)CC(C)C(=O)C(C)C2N(CC3CCCN3C(=O)c3cc4ccccc4cn3)C(=O)OC12C` (stereo not drawn) [12.09], for which the “MIC S. pyogenes 1079” value in assay [1] (S. pyogenes 1079 (ermB)) is over 64.00 µg/mL. Besides, in assay [2] (setting [6]), the “MIC S. pneumo. 1016” value is under 0.06 µg/mL. In assay [3] (S. pneumoniae 1095 (ermB)), the “MIC S. pneumo. 1095” value is 1 µg/mL (≈ 1.18 µM). In assay [4] (S. pneumoniae 1175 (mefA)), the “MIC S. pneumo. 1175” value came to 1 µg/mL (≈ 1.18 µM). Moreover, the “MIC H. influenzae 1218” value in assay [5] (setting [7]) was determined as 2 µg/mL (≈ 2.35 µM).
On to `CCC1OC(=O)C(C)C(=O)C(C)C(OC2OC(C)CC(N(C)C)C2O)C(C)(OC)CC(C)C(=O)C(C)C2N(CC3CN(C(=O)c4ccncc4)C3)C(=O)OC12C` (stereo not drawn) [4.05], for which, in assay [1] (Streptococcus pyogenes 1079), the “MIC S. pyogenes 1079” value is over 64.00 µg/mL. Besides, the “MIC S. pneumo. 1016” value in assay [2] (Streptococcus pneumoniae 1016) turned out to be 0.02 µg/mL (≈ 0.0254 µM). Also, in assay [3] (Streptococcus pneumoniae 1095), the “MIC S. pneumo. 1095” value is 2 µg/mL (≈ 2.54 µM). The “MIC S. pneumo. 1175” value in assay [4] (Streptococcus pneumoniae 1175) came out at 1 µg/mL (≈ 1.27 µM). Moreover, the “MIC H. influenzae 1218” value in assay [5] (Haemophilus influenzae 1218) came to 4 µg/mL (≈ 5.08 µM).
For `CCC1OC(=O)C(C)C(=O)C(C)C(OC2OC(C)CC(N(C)C)C2O)C(C)(OC)CC(C)C(=O)C(C)C2N(C3CN(Cc4cccc(-c5ccccn5)c4)C3)C(=O)OC12C` (stereo not drawn) [Example 1.43, 3-(pyridin-2-yl)-benzyl], the “MIC S. pyogenes 1079” value in assay [1] (Streptococcus pyogenes 1079) worked out at 16 µg/mL (≈ 19.2 µM). Moreover, the “MIC S. pneumo. 1016” value in assay [2] (Streptococcus pneumoniae 1016) is under 0.06 µg/mL. Further, the “MIC S. pneumo. 1095” value in assay [3] (Streptococcus pneumoniae 1095) is under 0.06 µg/mL. For the same molecule, the “MIC S. pneumo. 1175” value in assay [4] (Streptococcus pneumoniae 1175) was under 0.06 µg/mL. Moreover, the “MIC H. influenzae 1218” value in assay [5] (Haemophilus influenzae 1218) turned out to be 2 µg/mL (≈ 2.4 µM).
As to `CCC1OC(=O)C(C)C(=O)C(C)C(OC2OC(C)CC(N(C)C)C2O)C(C)(OC)CC(C)C(=O)C(C)C2N(CC3CCCN3C(=O)c3cc4ncccn4n3)C(=O)OC12C` (stereo not drawn) [10.53], in assay [1] (S. pyogenes 1079 (ermB)), the “MIC S. pyogenes 1079” value is over 64.00 µg/mL. Further, the “MIC S. pneumo. 1016” value in assay [2] (setting [6]) is under 0.06 µg/mL. Also, in assay [3] (S. pneumoniae 1095 (ermB)), the “MIC S. pneumo. 1095” value is under 0.06 µg/mL. In assay [4] (S. pneumoniae 1175 (mefA)), the “MIC S. pneumo. 1175” value was determined as 0.12 µg/mL (≈ 0.143 µM). The “MIC H. influenzae 1218” value in assay [5] (setting [7]) worked out at 1 µg/mL (≈ 1.19 µM).
